Test system: T-47D spheroids with HUVEC/MSC, viability
Test: Anticancer human tumor T-47D cell line growth inhibition [PI3K];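 further: spheroids exposed to agents for seven days before reading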;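 on viability, T/C: percent of DMSO vehicle control luminescence so 100% = untreated growth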
Conditions: for viability, T/C: stronger effect = lower value
Procedure, shortened: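 Targeted small molecules plus PI3K inhibitors, half-log dose series from Cmax (default top 10 microM), were applied to heterotypic spheroids of cancer cells with HUVEC and MSCs. Viability indicated growth inhibition.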

[1] = curve of first compound, second compound 0.0316 µM
[2] = curve of first compound, second compound 0.1 µM
[3] = curve of first compound, second compound 0.316 µM
[4] = curve of first compound, second compound 1 µM
[5] = second compound 0.0316 µM, first compound 0.0316 µM
[6] = second compound 0.0316 µM, first compound 0.1 µM
[7] = second compound 0.0316 µM, first compound 0.316 µM
[8] = second compound 0.0316 µM, first compound 1 µM
[9] = second compound 0.0316 µM, first compound 3.16 µM
[10] = second compound 0.0316 µM, first compound 10 µM
[11] = second compound 0.1 µM, first compound 0.0316 µM
[12] = second compound 0.1 µM, first compound 0.1 µM
[13] = second compound 0.1 µM, first compound 0.316 µM
[14] = second compound 0.1 µM, first compound 1 µM
[15] = second compound 0.1 µM, first compound 3.16 µM
[16] = second compound 0.1 µM, first compound 10 µM
[17] = second compound 0.316 µM, first compound 0.0316 µM
[18] = second compound 0.316 µM, first compound 0.1 µM
[19] = second compound 0.316 µM, first compound 0.316 µM
[20] = second compound 0.316 µM, first compound 1 µM
[21] = second compound 0.316 µM, first compound 3.16 µM
[22] = second compound 0.316 µM, first compound 10 µM
[23] = second compound 1 µM, first compound 0.0316 µM
[24] = second compound 1 µM, first compound 0.1 µM
[25] = second compound 1 µM, first compound 0.316 µM
[26] = second compound 1 µM, first compound 1 µM
[27] = second compound 1 µM, first compound 3.16 µM
[28] = second compound 1 µM, first compound 10 µM
[29] = curve of first compound, second compound 3.16 µM
[30] = curve of first compound, second compound 10 µM
[31] = second compound 3.16 µM, first compound 0.0316 µM
[32] = second compound 3.16 µM, first compound 0.1 µM
[33] = second compound 10 µM, first compound 0.0316 µM
[34] = second compound 10 µM, first compound 0.1 µM

For Cn1nccc1Nc1nccc(-c2ccn(C(CO)c3ccc(Cl)c(F)c3)c(=O)c2)n1 (stereo not given) + COc1c(OCCCN2CCOCC2)ccc2c3n(c(=NC(=O)c4cnc(N)nc4)nc12)CCN3, the IC50 (curve of first compound, second compound 0.00316 µM) was over 10 µM, the IC50 (curve of first compound, second compound 0.01 µM) was over 10 µM and the IC50 [1] was over 10 µM. It also gave an IC50 [2] of under 0.0316 µM, an IC50 [3] of under 0.0316 µM and an IC50 [4] of under 0.0316 µM. It also gave a viability, T/C (second compound 0.00316 µM, first compound 0.0316 µM) of 107%, a viability, T/C (second compound 0.00316 µM, first compound 0.1 µM) of 94% and a viability, T/C (second compound 0.00316 µM, first compound 0.316 µM) of 94.2%. The viability, T/C (second compound 0.00316 µM, first compound 1 µM) was 102%, the viability, T/C (second compound 0.00316 µM, first compound 3.16 µM) was 99.9% and the viability, T/C (second compound 0.00316 µM, first compound 10 µM) was 104%. It also gave a viability, T/C (second compound 0.01 µM, first compound 0.0316 µM) of 104%, a viability, T/C (second compound 0.01 µM, first compound 0.1 µM) of 88% and a viability, T/C (second compound 0.01 µM, first compound 0.316 µM) of 107%. It also gave a viability, T/C (second compound 0.01 µM, first compound 1 µM) of 83.6%, a viability, T/C (second compound 0.01 µM, first compound 3.16 µM) of 103% and a viability, T/C (second compound 0.01 µM, first compound 10 µM) of 86.4%. It also gave a viability, T/C [5] of 70%, a viability, T/C [6] of 72.3% and a viability, T/C [7] of 70.1%. For the same compound, the viability, T/C [8] was 77%, the viability, T/C [9] was 67.5% and the viability, T/C [10] was 69.6%. It also gave a viability, T/C [11] of 40.9%, a viability, T/C [12] of 39.7% and a viability, T/C [13] of 38.3%. The viability, T/C [14] was 48.5%, the viability, T/C [15] was 46.6% and the viability, T/C [16] was 48.2%. It also gave a viability, T/C [17] of 20.7%, a viability, T/C [18] of 20.4% and a viability, T/C [19] of 17.8%. It also gave a viability, T/C [20] of 24.5%, a viability, T/C [21] of 20.7% and a viability, T/C [22] of 22.7%. The viability, T/C [23] was 8.45%, the viability, T/C [24] was 6.31% and the viability, T/C [25] was 9.37%. The viability, T/C [26] was 7.73%, the viability, T/C [27] was 9.27% and the viability, T/C [28] was 7.43%.
In the case of CNC(=O)c1ccc(N2C(=S)N(c3ccc(C#N)c(C(F)(F)F)c3)C(=O)C2(C)C)cc1F, the viability, T/C (compound 0.0316 µM) is reported as 106% [middle of 4 runs], the viability, T/C (compound 0.1 µM) is reported as 95.9% [middle of 4 runs] and the viability, T/C (compound 0.316 µM) is reported as 105% [middle of 4 runs]. For the same compound, the viability, T/C (compound 1 µM) was 108% [middle of 4 runs], the viability, T/C (compound 3.16 µM) was 91.4% [middle of 4 runs] and the viability, T/C (compound 10 µM) was 89.3% [middle of 4 runs]. For the same compound, the IC50 (curve of compound) was over 10 µM.
Cn1ncnc1[C@H]1c2n[nH]c(=O)c3cc(F)cc(c23)N[C@@H]1c1ccc(F)cc1 + Cc1nc(NC(=O)N2CCCC2C(N)=O)sc1-c1ccnc(C(C)(C)C(F)(F)F)c1 showed an IC50 [1] of over 0.1 µM, an IC50 [2] of over 0.1 µM and an IC50 [3] of over 0.1 µM. For the same compound, the IC50 [4] was over 0.1 µM, the IC50 [29] was over 0.1 µM and the IC50 [30] was under 0.000316 µM. For the same compound, the viability, T/C (second compound 0.0316 µM, first compound 0.000316 µM) was 105%, the viability, T/C (second compound 0.0316 µM, first compound 0.001 µM) was 103% and the viability, T/C (second compound 0.0316 µM, first compound 0.00316 µM) was 99%. For the same compound, the viability, T/C (second compound 0.0316 µM, first compound 0.01 µM) was 99.9%, the viability, T/C [5] was 86.8% and the viability, T/C [6] was 98.8%. It also gave a viability, T/C (second compound 0.1 µM, first compound 0.000316 µM) of 106%, a viability, T/C (second compound 0.1 µM, first compound 0.001 µM) of 96.3% and a viability, T/C (second compound 0.1 µM, first compound 0.00316 µM) of 95.5%. The viability, T/C (second compound 0.1 µM, first compound 0.01 µM) was 106%, the viability, T/C [11] was 99.5% and the viability, T/C [12] was 86.7%. For the same compound, the viability, T/C (second compound 0.316 µM, first compound 0.000316 µM) was 105%, the viability, T/C (second compound 0.316 µM, first compound 0.001 µM) was 97.5% and the viability, T/C (second compound 0.316 µM, first compound 0.00316 µM) was 105%. The viability, T/C (second compound 0.316 µM, first compound 0.01 µM) was 87%, the viability, T/C [17] was 94.5% and the viability, T/C [18] was 86.5%. It also gave a viability, T/C (second compound 1 µM, first compound 0.000316 µM) of 101%, a viability, T/C (second compound 1 µM, first compound 0.001 µM) of 89.3% and a viability, T/C (second compound 1 µM, first compound 0.00316 µM) of 85.1%. For the same compound, the viability, T/C (second compound 1 µM, first compound 0.01 µM) was 89.4%, the viability, T/C [23] was 87.7% and the viability, T/C [24] was 90.5%. It also gave a viability, T/C (second compound 3.16 µM, first compound 0.000316 µM) of 65.1%, a viability, T/C (second compound 3.16 µM, first compound 0.001 µM) of 70.8% and a viability, T/C (second compound 3.16 µM, first compound 0.00316 µM) of 63.4%. It also gave a viability, T/C (second compound 3.16 µM, first compound 0.01 µM) of 63.6%, a viability, T/C [31] of 71.5% and a viability, T/C [32] of 69.2%. The viability, T/C (second compound 10 µM, first compound 0.000316 µM) was 39%, the viability, T/C (second compound 10 µM, first compound 0.001 µM) was 34.8% and the viability, T/C (second compound 10 µM, first compound 0.00316 µM) was 36.8%. For the same compound, the viability, T/C (second compound 10 µM, first compound 0.01 µM) was 34.1%, the viability, T/C [33] was 32.9% and the viability, T/C [34] was 38.9%.
C[C@@H](NC(=O)c1ncnc(N)c1Cl)c1ncc(C(=O)Nc2cc(C(F)(F)F)c(Cl)cn2)s1 + CC(Nc1ncnc2nc[nH]c12)c1cc2cccc(Cl)c2c(=O)n1-c1ccccc1 was tested, and the IC50 [1] was over 10 µM, the IC50 [2] was over 10 µM and the IC50 [3] was over 10 µM. It also gave an IC50 [4] of over 10 µM, an IC50 [29] of over 10 µM and an IC50 [30] of over 10 µM. For the same compound, the viability, T/C [5] was 75.3%, the viability, T/C [6] was 88.3% and the viability, T/C [7] was 83.8%. It also gave a viability, T/C [8] of 89.1%, a viability, T/C [9] of 108% and a viability, T/C [10] of 92.5%. The viability, T/C [11] was 106%, the viability, T/C [12] was 90.2% and the viability, T/C [13] was 86%. It also gave a viability, T/C [14] of 84.3%, a viability, T/C [15] of 89.9% and a viability, T/C [16] of 90.9%. It also gave a viability, T/C [17] of 94.8%, a viability, T/C [18] of 93.2% and a viability, T/C [19] of 90.3%. The viability, T/C [20] was 84%, the viability, T/C [21] was 84.7% and the viability, T/C [22] was 100%. For the same compound, the viability, T/C [23] was 80.2%, the viability, T/C [24] was 105% and the viability, T/C [25] was 80.9%. For the same compound, the viability, T/C [26] was 89.2%, the viability, T/C [27] was 85.8% and the viability, T/C [28] was 90%. For the same compound, the viability, T/C [31] was 72.2%, the viability, T/C [32] was 91.2% and the viability, T/C (second compound 3.16 µM, first compound 0.316 µM) was 97.4%. For the same compound, the viability, T/C (second compound 3.16 µM, first compound 1 µM) was 98.8%, the viability, T/C (second compound 3.16 µM, first compound 3.16 µM) was 82% and the viability, T/C (second compound 3.16 µM, first compound 10 µM) was 80.7%. For the same compound, the viability, T/C [33] was 105%, the viability, T/C [34] was 82.1% and the viability, T/C (second compound 10 µM, first compound 0.316 µM) was 103%. For the same compound, the viability, T/C (second compound 10 µM, first compound 1 µM) was 84.1%, the viability, T/C (second compound 10 µM, first compound 3.16 µM) was 86.3% and the viability, T/C (second compound 10 µM, first compound 10 µM) was 88.8%.
CC(Nc1ccc2c(c1)OCCn1cc(N3C(=O)OCC3C(F)F)nc1-2)C(N)=O (stereo not given) was tested, and the viability, T/C (compound 0.00316 µM) was 95.1% [middle of 8 runs], the viability, T/C (compound 0.0316 µM) was 93.7% [middle of 8 runs] and the viability, T/C (compound 0.316 µM) was 79.9% [middle of 8 runs]. The viability, T/C (compound 1 µM) was 57.9% [middle of 8 runs] and the IC50 (compound alone, run of 04/24/2023) was over 1 µM.
For CC(Cn1ccc(-c2ccc(C#N)c(Cl)c2)n1)NC(=O)c1cc(C(C)O)[nH]n1 (stereo not given), the viability, T/C (compound 0.0316 µM) was 100% [middle of 4 runs], the viability, T/C (compound 0.1 µM) was 107% [middle of 4 runs] and the viability, T/C (compound 0.316 µM) was 92.3% [middle of 4 runs]. For the same compound, the viability, T/C (compound 1 µM) was 95.2% [middle of 4 runs], the viability, T/C (compound 3.16 µM) was 89.8% [middle of 4 runs] and the viability, T/C (compound 10 µM) was 58.7% [middle of 4 runs]. The IC50 (curve of compound) was over 10 µM.

Source: PubChem BioAssay AID1963959 (Molecular Pharmacology Branch, DTP, NCI, 2024)
